From ChEMBL document CHEMBL3817795, “Identification and optimisation of a series of N-(4-anilino-2-pyridyl)acetamide activin receptor-like kinase 1 (ALK1) inhibitors” (Medchemcomm, 2016)

Assay: Lipophilicity, log D of the compound at pH 7.4
Assay type: physicochemical
Details: buffer

Row | Compound | logD
1 | CC(=O)Nc1cc(Nc2c(Cl)ccc3c2OCO3)ccn1 | 2.7
2 | O=C(Nc1cc(Nc2ccccc2)ccn1)C1CC1 | 3.3
